Test results published in patent US5136090A, “Biphenyl-5,5'-bis-alkanoic acid derivatives, their production and aldose reductase inhibitors containing the same” (Toyo Jozo Kabushiki Kaisha, priority 1990, dated 1992).

Columns and labels:
[1] = molecular target: T1, partially purified bovine lens aldose reductase (Bos taurus, UniProt P16116); assay: Inhibitory activity on aldose reductase enzyme reaction; format: biochemical; details: for inhibition at 0.02 µg/mL: concentration 0.02 μg/ml; for inhibition at 0.1 µg/mL: concentration 0.1 μg/ml
T1 construct: partially purified bovine lens aldose reductase; from tissue; host or cells: bovine lens
Protocol: The preparation of aldose reductase and the determination of its inhibitory action on enzyme reaction activity were carried out pursuant to the procedures disclosed by Haymann et al. in Journal of Biological Chemistry, 240, 877 (1965).
The sample solution to be examined for inhibitory activity was prepared by dissolving a compound of formula (I) according to the present invention in a small amount of methanol and increasing the volume of the resulting methanol solution by diluting it with distilled water up to tenfold volume. A partially purified bovine lens aldose reductase was used for the assay.
To 2.4 ml of a solution of 5×10^-5 M NADPH dissolved in a 2/15M phosphate buffer solution (pH 6.0), 0.4 ml of the enzyme solution (15 m units/ml) and 0.1 ml of the sample solution to be examined were added and the mixture was introduced into a quartz cell in a photoelectric photometer and subjected to pre-incubation at 37° C. for 4 mins. Then, 0.1 ml of a 0.015M D,L-glyceraldehyde solution was added thereto for initiating the enzyme reaction and the decrease in the optical absorption at 340 nm was measured at 37° C. for 4 mins. The inhibitory activity on aldose reductase was calculated by the following equation: [formula] in which A represents the enzyme reaction rate with addition of the inhibitor and B denotes the enzyme reaction rate without addition of the inhibitor.

Lens = assay: Suppression of sorbitol accumulation in cultured lens; format: cell-based, Wistar rats; details: concentration 2.5 μg/ml; rat lens cultured 20 hours with 0.9% glucose
Protocol: (§1) Lenses and sciatic nerves extirpated from Wistar rats, male, aged 7 weeks, were washed twice with an aseptic buffer solution consisting of 0.3% trisaminomethane, 0.8% NaCl, 0.038% KCl, 0.025% Na2 HPO4 ·12H2 O, 0.1% glucose and 1.85 ml/l of concentrated HCl.
(§2) The lenses and the sciatic nerves were then preincubated for 30 mins. in a culture medium prepared by adding 2 ml of 7.5% NaHCO3 aseptic solution and 5.5 ml of aseptic calf fetus serum to 100 ml of an aseptic culture medium of 0.98% TC Medium 199 (NISSUI Corp.) containing 0.01% of dihydrostreptomycin and 0.01% of benzylpenicillin. Thereafter, the intrinsic culture was effected in a culture medium prepared by adding each sample solution to be examined and 0.9% of glucose to the abovementioned culture medium and permitting culturing to proceed for 20 hours. The incubation was effected at 37° C. in an atmosphere composed of 95% air and 5% CO2.
(§3) After culturing, the cultured samples of lens and sciatic nerve were removed from the culture medium to filter paper and the weight of each of them was measured after the adherent culture solution had been blown off. Then, each of the cultured samples was homogenized with the addition of 1 ml of a cold 8% HClO4 solution and the homogenized mixture was subjected to centrifugation at 10,000 G for 10 mins., whereby a supernatant was obtained. The resulting precipitate was then homogenized again with addition thereto of 0.5 ml of cold 8% HClO4 solution and the homogenized mixture was again subjected to centrifugation in a similar way as above to obtain a further supernatant. This was combined with the previously obtained supernatant and the resulting solution was neutralized with 2N KOH aq. solution and was supplemented with distilled water to a volume of 5 ml. The precipitate formed by neutralization was separated by centrifugation at 3,000 rpm for 10 mins. and the resulting supernatant was employed as the sample for determining the sorbitol content.
(§4) The determination of the sorbitol content in the lens and in the sciatic nerve was carried out in accordance with the method of Bergmeyer in "Methods of Enzymatic Analysis" edited by H. U. Bergmeyer, pp 1323-1326, Academic Press, New York, 1974 and in accordance with the method of Malaon et al. in "Diabetes" 29, 861-864 (1980).
(§5) To 0.5 ml cf the sample solution for determination of sorbitol content obtained as above, 0.9 ml of 0.1M glycine-KOH buffer solution (pH 9.4) containing 1 mM of NAD^+ and 0.1 ml of a solution of sorbitol dehydrogenase of 20 units/ml were added and the resulting mixture was subjected to incubation at 37° C. for 1 hour.
(§6) The content of sorbitol in each tissue was estimated by assuming the increment of the optical absorption at 340 nm to be proportional to the amount of NADH produced by the reaction for the lens and by detecting the fluorescence with an excitation wavelength of 366 nm and a fluorescence wavelength of 425 nm for the sciatic nerve.
(§7) The activity for suppressing accumulation of sorbitol, i.e. the aldose reductase inhibiting activity, was calculated from the determined sorbitol content by the calculation formula [formula] in which A denotes the content of sorbitol per unit weight of the tissue after cultivation with addition of the inhibitor, B denotes the sorbitol content per unit weight of the tissue after cultivation without addition of the inhibitor and C represents the sorbitol content per unit weight of the tissue after cultivation in the medium without addition of glucose and inhibitor.

Sciatic Nerve = assay: Suppression of sorbitol accumulation in cultured sciatic nerve; format: cell-based, Wistar rats; details: Rattus norvegicus, 20 h, concentration 1.0 μg/ml; rat sciatic nerve cultured 20 hours with 0.9% glucose
Protocol: as §1, §2, §3, §4, §5, §6, §7

SMILES	inhibition at 0.02 µg/mL [1] [%]	inhibition at 0.1 µg/mL [1] [%]	inhibition at 2.5 µg/mL (Lens) [%]	inhibition at 1 µg/mL (Sciatic Nerve) [%]
COc1ccc(CCC(=O)O)cc1-c1cc(CCC(=O)O)ccc1O [Example 16, 2-methoxy-2'-hydroxy-5,5'-bis (2-carboxyethyl) biphenyl]	21.1	51.4	59.3	47.7
CCOc1ccc(CCC(=O)O)cc1-c1cc(CCC(=O)O)ccc1O [Example 17, 2-ethoxy-2'-hydroxy-5,5'-bis (2-carboxyethyl) biphenyl]	19.5	55	47.2	69.2
COc1ccc(CCCC(=O)O)cc1-c1cc(CCCC(=O)O)ccc1O [Example 21, 2-methoxy-2'-hydroxy-5,5'-bis (3-carboxypropyl) biphenyl]	14.7	52.7	48.8	75.4
CCCOc1ccc(CCCC(=O)O)cc1-c1cc(CCCC(=O)O)ccc1O [Example 23, 2-propoxy-2'-hydroxy-5,5'-bis (3-carboxypropyl) biphenyl]	33.6	69.2	55.3	81.1
